Measured values reported in US20090312521A1 (priority 2004, published 2009).
Values after ≈ are worked out from the molar mass of the structure shown. Non-standard residues stand in square brackets, D forms with d. Residues, ends and D or L forms follow the SMILES beside them. β3hY = N[C@H](CC(=O)O)Cc1ccc(O)cc1; NMeS = CN[C@@H](CO)C(=O)O; β3hS = N[C@@H](CO)CC(=O)O; Ava = NCCCCC(=O)O; GABA = NCCCC(=O)O; Sar = CNCC(=O)O

Each molecule was assayed on E. coli ATCC 11775. Conditions: ATCC 11775, 24 h.
Type: cell-based
Method: Lyophilized peptides were dissolved in NB to give a concentration of 400 μM and filtered using 0.22 μm filter discs (Millex GV, Durapore). An overnight culture in NB was adjusted to 5×10^6 CFU/mL and inoculated into the micro titer plate wells (10 μL) containing each 100 μL of a serial 2-fold dilution (200-0.4 μM) of the tested peptide in NB. Plates were incubated while gently shaking at 37 ° C. for 24 h. Next, 80 μL suspension of each well was transported into a flat-bottom 96-well plate (Costar). The absorbance was measured at 600 nm using a μQuant micro plate spectrophotometer (Bio-Tek Instruments). All peptides were measured in quadruplo. The peptide with sequence […] (see Otvos Jr, […]; Otvos, B. I.; Hoffmann, […].; Wade, […].; Bulet, P. Protein Sci. 2000, 9, 742) was used as negative control.
CC[C@H](C)[C@H](NC(=O)[C@@H]1CCCN1C(=O)[C@H](CCCNC(=N)N)NC(=O)[C@@H]1CCCN1C(=O)[C@H](Cc1cnc[nH]1)NC(=O)[C@H](CO)NC(=O)[C@@H](NC(=O)[C@@H]1CCCN1C(=O)[C@H](CCCNC(=N)N)NC(=O)[C@@H]1CCCN1C(=O)[C@H](CO)NC(=O)[C@H](Cc1ccc(O)cc1)NC(=O)[C@@H]1CCCN1C(=O)[C@H](CCCNC(=N)N)NC(=O)[C@@H]1CCCN1C(=O)[C@H](CCCCN)NC(=O)CN)[C@@H](C)O)C(=O)N[C@@H](CCCNC(=N)N)C(=O)N[C@H](C(=O)O)C(C)C [Peptide 1, GKPRP YSPRP TSHPR PIRV, reference compound] (H-GKPRPYSPRPTSHPRPIRV-OH) was tested, and the MIC was 6.3 µM (≈ 13.9 µg/mL). With CC[C@H](C)[C@H](NC(=O)[C@@H]1CCCN1C(=O)[C@H](CCCNC(=N)N)NC(=O)[C@@H]1CCCN1C(=O)[C@H](Cc1c[nH]cn1)NC(=O)[C@H](CO)NC(=O)[C@@H](NC(=O)[C@@H]1CCCN1C(=O)[C@H](CCCNC(=N)N)NC(=O)[C@@H]1CCCN1C(=O)[C@H](CO)N(C)C(=O)[C@H](Cc1ccc(O)cc1)NC(=O)[C@@H]1CCCN1C(=O)[C@H](CCCNC(=N)N)NC(=O)[C@@H]1CCCN1C(=O)[C@H](CCCCN)NC(=O)CN)[C@@H](C)O)C(=O)N[C@@H](CCCNC(=N)N)C(=O)N[C@H](C(=O)O)C(C)C [Peptide 2, GKPRP Y^MeSPRP TSHPR PIRV] (H-GKPRPY[NMeS]PRPTSHPRPIRV-OH) the MIC was 25 µM (≈ 55.3 µg/mL). CC[C@H](C)[C@H](NC(=O)[C@@H]1CCCN1C(=O)[C@H](CCCNC(=N)N)NC(=O)[C@@H]1CCCN1C(=O)[C@H](Cc1c[nH]cn1)NC(=O)[C@H](CO)NC(=O)[C@@H](NC(=O)[C@@H]1CCCN1C(=O)[C@H](CCCNC(=N)N)NC(=O)[C@@H]1CCCN1C(=O)[C@H](CO)NC(=O)[C@H](Cc1ccccc1)NC(=O)[C@@H]1CCCN1C(=O)[C@H](CCCNC(=N)N)NC(=O)[C@@H]1CCCN1C(=O)[C@H](CCCCN)NC(=O)CN)[C@@H](C)O)C(=O)N[C@@H](CCCNC(=N)N)C(=O)N[C@H](C(=O)O)C(C)C [Peptide 3, GKPRP FSPRP TSHPR PIRV] (H-GKPRPFSPRPTSHPRPIRV-OH; N-terminus assumed) gave an MIC of 3.1 µM (≈ 6.77 µg/mL). CC[C@H](C)[C@H](NC(=O)[C@@H]1CCCN1C(=O)[C@H](CCCNC(=N)N)NC(=O)[C@@H]1CCCN1C(=O)[C@H](Cc1c[nH]cn1)NC(=O)[C@H](CO)NC(=O)[C@@H](NC(=O)[C@@H]1CCCN1C(=O)[C@H](CCCNC(=N)N)NC(=O)[C@@H]1CCCN1C(=O)[C@@H](NC(=O)[C@H](Cc1ccccc1)NC(=O)[C@@H]1CCCN1C(=O)[C@H](CCCNC(=N)N)NC(=O)[C@@H]1CCCN1C(=O)[C@H](CCCCN)NC(=O)CN)[C@@H](C)O)[C@@H](C)O)C(=O)N[C@@H](CCCNC(=N)N)C(=O)N[C@H](C(=O)O)C(C)C [Peptide 5, GKPRP FTPRP TSHPR PIRV] (H-GKPRPFTPRPTSHPRPIRV-OH; N-terminus assumed) was tested, and the MIC was 3.1 µM (≈ 6.81 µg/mL). CC[C@H](C)[C@H](NC(=O)[C@@H]1CCCN1C(=O)[C@H](CCCNC(=N)N)NC(=O)[C@@H]1CCCN1C(=O)[C@H](Cc1c[nH]cn1)NC(=O)[C@H](CO)NC(=O)[C@@H](NC(=O)[C@@H]1CCCN1C(=O)[C@H](CCCNC(=N)N)NC(=O)[C@@H]1CCCN1C(=O)[C@H](CO)NC(=O)[C@@H](Cc1ccc(O)cc1)NC(=O)[C@@H]1CCCN1C(=O)[C@H](CCCNC(=N)N)NC(=O)[C@@H]1CCCN1C(=O)[C@H](CCCCN)NC(=O)CN)[C@@H](C)O)C(=O)N[C@@H](CCCNC(=N)N)C(=O)N[C@H](C(=O)O)C(C)C [Peptide 6, GKPRP DYSPRP TSHPR PIRV] (H-GKPRP[dY]SPRPTSHPRPIRV-OH; N-terminus assumed) showed an MIC of 6.3 µM (≈ 13.9 µg/mL). CC[C@H](C)[C@H](NC(=O)[C@@H]1CCCN1C(=O)[C@H](CCCNC(=N)N)NC(=O)[C@@H]1CCCN1C(=O)[C@H](Cc1c[nH]cn1)NC(=O)[C@H](CO)NC(=O)[C@@H](NC(=O)[C@@H]1CCCN1C(=O)[C@H](CCCNC(=N)N)NC(=O)[C@@H]1CCCN1C(=O)[C@H](CO)NC(=O)C[C@H](Cc1ccc(O)cc1)NC(=O)[C@@H]1CCCN1C(=O)[C@H](CCCNC(=N)N)NC(=O)[C@@H]1CCCN1C(=O)[C@H](CCCCN)NC(=O)CN)[C@@H](C)O)C(=O)N[C@@H](CCCNC(=N)N)C(=O)N[C@H](C(=O)O)C(C)C [Peptide 9, GKPRP βYSPRP TSHPR PIRV] (H-GKPRP[β3hY]SPRPTSHPRPIRV-OH) showed an MIC of 3.1 µM (≈ 6.86 µg/mL). Molecule CC[C@H](C)[C@H](NC(=O)[C@@H]1CCCN1C(=O)[C@H](CCCNC(=N)N)NC(=O)[C@@H]1CCCN1C(=O)[C@H](Cc1c[nH]cn1)NC(=O)[C@H](CO)NC(=O)[C@@H](NC(=O)[C@@H]1CCCN1C(=O)[C@H](CCCNC(=N)N)NC(=O)[C@@H]1CCCN1C(=O)C[C@H](CO)NC(=O)[C@H](Cc1ccc(O)cc1)NC(=O)[C@@H]1CCCN1C(=O)[C@H](CCCNC(=N)N)NC(=O)[C@@H]1CCCN1C(=O)[C@H](CCCCN)NC(=O)CN)[C@@H](C)O)C(=O)N[C@@H](CCCNC(=N)N)C(=O)N[C@H](C(=O)O)C(C)C [Peptide 10, GKPRP YβSPRP TSHPR PIRV] (H-GKPRPY[β3hS]PRPTSHPRPIRV-OH) has an MIC of 3.1 µM (≈ 6.86 µg/mL). CC[C@H](C)[C@H](NC(=O)[C@@H]1CCCN1C(=O)[C@H](CCCNC(=N)N)NC(=O)[C@@H]1CCCN1C(=O)[C@H](Cc1c[nH]cn1)NC(=O)[C@H](CO)NC(=O)[C@@H](NC(=O)[C@@H]1CCCN1C(=O)[C@H](CCCNC(=N)N)NC(=O)[C@@H]1CCCN1C(=O)C[C@H](CO)NC(=O)C[C@H](Cc1ccc(O)cc1)NC(=O)[C@@H]1CCCN1C(=O)[C@H](CCCNC(=N)N)NC(=O)[C@@H]1CCCN1C(=O)[C@H](CCCCN)NC(=O)CN)[C@@H](C)O)C(=O)N[C@@H](CCCNC(=N)N)C(=O)N[C@H](C(=O)O)C(C)C [Peptide 11, GKPRP βYβSPRP TSHPR PIRV] (H-GKPRP[β3hY][β3hS]PRPTSHPRPIRV-OH) gave an MIC of 12.5 µM (≈ 27.8 µg/mL). CC[C@H](C)[C@H](NC(=O)[C@@H]1CCCN1C(=O)[C@H](CCCNC(=N)N)NC(=O)[C@@H]1CCCN1C(=O)[C@H](Cc1c[nH]cn1)NC(=O)[C@H](CO)NC(=O)[C@@H](NC(=O)[C@@H]1CCCN1C(=O)[C@H](CCCNC(=N)N)NC(=O)[C@@H]1CCCN1C(=O)[C@@H](NC(=O)[C@H](Cc1ccc(O)cc1)NC(=O)[C@@H]1CCCN1C(=O)[C@H](CCCNC(=N)N)NC(=O)[C@@H]1CCCN1C(=O)[C@H](CCCCN)NC(=O)CCCCN)[C@@H](C)O)[C@@H](C)O)C(=O)N[C@@H](CCCNC(=N)N)C(=O)N[C@H](C(=O)O)C(C)C [Peptide 12, AvaKPRP YTPRP TSHPR PIRV] (H-[Ava]KPRPYTPRPTSHPRPIRV-OH; N-terminus assumed) showed an MIC of 6.3 µM (≈ 14.2 µg/mL). CC[C@H](C)[C@H](NC(=O)[C@@H]1CCCN1C(=O)[C@H](CCCNC(=N)N)NC(=O)[C@@H]1CCCN1C(=O)[C@H](Cc1c[nH]cn1)NC(=O)[C@H](CO)NC(=O)[C@@H](NC(=O)[C@@H]1CCCN1C(=O)[C@H](CCCNC(=N)N)NC(=O)[C@@H]1CCCN1C(=O)[C@@H](NC(=O)[C@H](Cc1ccc(O)cc1)NC(=O)[C@@H]1CCCN1C(=O)[C@H](CCCNC(=N)N)NC(=O)[C@@H]1CCCN1C(=O)[C@H](CCCCN)NC(=O)CCCN)[C@@H](C)O)[C@@H](C)O)C(=O)N[C@@H](CCCNC(=N)N)C(=O)N[C@H](C(=O)O)C(C)C [Peptide 13, AbuKPRP YTPRP TSHPR PIRV] (H-[GABA]KPRPYTPRPTSHPRPIRV-OH; N-terminus assumed) was tested, and the MIC was 6.3 µM (≈ 14.1 µg/mL). CC[C@H](C)[C@H](NC(=O)[C@@H]1CCCN1C(=O)[C@H](CCCNC(=N)N)NC(=O)[C@@H]1CCCN1C(=O)[C@H](Cc1c[nH]cn1)NC(=O)[C@H](CO)NC(=O)[C@@H](NC(=O)[C@@H]1CCCN1C(=O)[C@H](CCCNC(=N)N)NC(=O)[C@@H]1CCCN1C(=O)[C@@H](NC(=O)[C@H](Cc1ccc(O)cc1)NC(=O)[C@@H]1CCCN1C(=O)[C@H](CCCNC(=N)N)NC(=O)[C@@H]1CCCN1C(=O)[C@H](CCCCN)NC(=O)CNC)[C@@H](C)O)[C@@H](C)O)C(=O)N[C@@H](CCCNC(=N)N)C(=O)N[C@H](C(=O)O)C(C)C [Peptide 15, SarKPRP YTPRP TSHPR PIRV] (H-[Sar]KPRPYTPRPTSHPRPIRV-OH; N-terminus assumed) gave an MIC of 6.3 µM (≈ 14 µg/mL).
